Data reported in patent US20220380375A1, “SUBSTITUTED AROMATIC FUSED RING DERIVATIVE AND COMPOSITION COMPRISING SAME, AND USE THEREOF” (Shenzhen TargetRx, Inc., priority 2019, published 2022).

Experiments:
Assay type in all cases: cell-based
[1] = target: T1, Ba/F3 KIF5B-RET^V804L cells (Homo sapiens, UniProt P07949, V804L, cells depend on it); assay: Cytotoxicity assay (CellTiter-Glo), Ba/F3 KIF5B-RET V804L; conditions: CellTiter-Glo, 72 hrs; read-out: Ba/F3 KIF5B-RET^V804L IC50
T1 construct: Ba/F3 KIF5B-RET^V804L IC50 (nM); other: CellTiter-Glo, 72 hrs; fused on or other part: P33176 (Kinesin-1 heavy chain)
T1 sequence (P07949 whole entry V804L, the tested form may be a part): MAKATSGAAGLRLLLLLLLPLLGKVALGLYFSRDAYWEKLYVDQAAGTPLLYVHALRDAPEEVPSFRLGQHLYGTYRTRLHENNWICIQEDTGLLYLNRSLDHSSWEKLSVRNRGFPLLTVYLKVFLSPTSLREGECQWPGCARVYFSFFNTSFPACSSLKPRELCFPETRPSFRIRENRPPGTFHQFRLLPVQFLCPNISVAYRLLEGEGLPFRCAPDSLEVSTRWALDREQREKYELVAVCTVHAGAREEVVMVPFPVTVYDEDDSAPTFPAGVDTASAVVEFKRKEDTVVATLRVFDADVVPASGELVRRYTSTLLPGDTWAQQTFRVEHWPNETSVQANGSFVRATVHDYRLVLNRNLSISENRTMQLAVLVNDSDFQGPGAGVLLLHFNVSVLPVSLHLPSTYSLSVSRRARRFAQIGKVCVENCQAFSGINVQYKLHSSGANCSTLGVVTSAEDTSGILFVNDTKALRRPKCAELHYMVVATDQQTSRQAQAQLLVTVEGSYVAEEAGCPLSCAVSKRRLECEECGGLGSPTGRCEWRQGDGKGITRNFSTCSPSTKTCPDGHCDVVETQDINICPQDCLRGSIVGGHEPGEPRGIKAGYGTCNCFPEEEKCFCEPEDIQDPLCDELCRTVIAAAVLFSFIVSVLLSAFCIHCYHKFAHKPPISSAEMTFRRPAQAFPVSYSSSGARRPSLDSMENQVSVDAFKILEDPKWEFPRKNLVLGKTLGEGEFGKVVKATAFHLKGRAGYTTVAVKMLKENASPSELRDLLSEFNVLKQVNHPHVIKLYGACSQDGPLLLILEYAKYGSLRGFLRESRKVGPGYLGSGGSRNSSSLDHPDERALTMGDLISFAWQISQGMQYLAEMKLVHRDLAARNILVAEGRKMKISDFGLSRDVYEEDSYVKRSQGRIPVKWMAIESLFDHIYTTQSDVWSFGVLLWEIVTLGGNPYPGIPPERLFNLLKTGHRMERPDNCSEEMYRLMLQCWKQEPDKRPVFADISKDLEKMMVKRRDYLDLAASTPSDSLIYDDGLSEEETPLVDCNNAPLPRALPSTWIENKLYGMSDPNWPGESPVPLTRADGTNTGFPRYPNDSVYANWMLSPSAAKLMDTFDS
Protocol: (§1) Inhibitory effects of example compounds on the activity of Ba/F3 parental generation, Ba/F3 KIF5B-RET, Ba/F3 KIF5B-RET^V804M, Ba/F3 KIF5B-RET^V804L, Ba/F3 KIF5B-RET^G810R, Ba/F3 FLT3-ITD, Ba/F3 FLT3-ITD^D835Y, Ba/F3 FLT3-ITD^F691L cells were determined.
(§2) Materials and reagents: fetal bovine serum FBS (GIBCO, Cat #10099141), CellTiter-Glo® Luminescent Cell Viability Assay kit (Promega, Cat #G7572), 96-well black-wall clear flat-bottom plate (Corning®, Cat #3603).
(§3) 1. Cells in the logarithmic growth phase were harvested and counted with a […]. Cell viability was detected by a trypan blue exclusion method, ensuring that cell viability was 90% or more; 2. Cell concentration was adjusted to about 3000 cells/well; 90 μl of cell suspension was added to each well of the 96-well plate; 3. The cells in the 96-well plate were incubated overnight under the condition of 37° C., 5% CO2, and 95% humidity.
(§4) 1. A series of compound solutions were formulated by 3.16-fold serial dilution starting from a concentration of 10 μM, resulting in 9 concentrations. 10 μL of the compound solutions were added in each well of the 96-well plate seeded with cells in triplicate for each compound concentration; 2. The cells in the 96-well plate added with compounds were further incubated under the condition of 37° C., 5% CO2, and 95% humidity for 72 hrs, and then CTG analysis was carried out.
(§5) 1. CTG reagent was thawed, and the cell plate was equilibrated at room temperature for 30 minutes; 2. An equal volume […] of CTG solution was added to each well; 3. The cell plate was shaken on an orbital shaker for 5 minutes to lyse the cells; 4. The cell plate was placed at RT for 20 minutes to stabilize the luminescence signal; 5. Luminescence value was read.
(§6) Data were Analyzed by GraphPad Prism 5.0 Software, and Fitted by Nonlinear S-Curve Regression to obtain a dose-response curve, from which IC50 values were calculated.
(§7) Cell survival rate (%)=(luminescence value of drug to be tested−luminescence value of culture medium control)/(luminescence value of cell control−luminescence value of culture medium control)×100%.

[2] = test system: Ba/F3 KIF5B-RET^V804L cells; assay: as above; conditions: ratio of Ba/F3 parental IC50 to Ba/F3 KIF5B-RET^V804L IC50
Protocol: as §1, §2, §3, §4, §5, §6, §7

[3] = target: T2, Ba/F3 FLT3-ITD^F691L cells (Homo sapiens, UniProt P36888, F691L, cells depend on it, form not given); assay: Cytotoxicity assay (CellTiter-Glo), Ba/F3 FLT3-ITD F691L; conditions: CellTiter-Glo, 72 hrs; read-out: Ba/F3 FLT3-ITD^F691L IC50
T2 construct: Ba/F3 FLT3-ITD^F691L IC50 (nM); other: CellTiter-Glo, 72 hrs
T2 sequence (P36888 1-993 F691L): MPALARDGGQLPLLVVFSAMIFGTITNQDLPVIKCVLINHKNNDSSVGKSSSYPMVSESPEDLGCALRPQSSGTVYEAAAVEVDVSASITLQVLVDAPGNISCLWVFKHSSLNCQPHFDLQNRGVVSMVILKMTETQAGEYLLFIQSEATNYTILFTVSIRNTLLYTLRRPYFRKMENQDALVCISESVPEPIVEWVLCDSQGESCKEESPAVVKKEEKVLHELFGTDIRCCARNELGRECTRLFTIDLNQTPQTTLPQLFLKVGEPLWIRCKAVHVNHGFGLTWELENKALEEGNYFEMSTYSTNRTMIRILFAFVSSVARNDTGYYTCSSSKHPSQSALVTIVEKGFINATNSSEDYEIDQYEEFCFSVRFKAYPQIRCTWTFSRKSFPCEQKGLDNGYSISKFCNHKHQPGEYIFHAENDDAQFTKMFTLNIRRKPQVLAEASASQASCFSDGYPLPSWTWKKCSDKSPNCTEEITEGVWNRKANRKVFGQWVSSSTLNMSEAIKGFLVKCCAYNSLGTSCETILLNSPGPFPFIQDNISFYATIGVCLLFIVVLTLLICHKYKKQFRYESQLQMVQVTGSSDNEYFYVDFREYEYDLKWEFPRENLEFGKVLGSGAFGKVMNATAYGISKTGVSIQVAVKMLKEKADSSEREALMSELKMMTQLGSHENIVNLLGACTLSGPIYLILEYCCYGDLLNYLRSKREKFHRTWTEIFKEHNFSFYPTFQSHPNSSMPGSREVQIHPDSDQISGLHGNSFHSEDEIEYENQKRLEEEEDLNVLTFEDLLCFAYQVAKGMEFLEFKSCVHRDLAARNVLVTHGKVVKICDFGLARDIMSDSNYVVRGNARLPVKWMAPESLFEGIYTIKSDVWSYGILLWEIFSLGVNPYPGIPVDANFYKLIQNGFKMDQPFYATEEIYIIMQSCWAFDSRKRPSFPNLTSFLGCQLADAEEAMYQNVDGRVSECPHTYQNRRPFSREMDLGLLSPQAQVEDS
Protocol: as §1, §2, §3, §4, §5, §6, §7

Row | Compound | GI50 [1] [nM] | Ba/F3 KIF5B-RET^V804L Selectivity on parental generation [2] | GI50 [3] [nM]
1 | CC(C)n1nc(-c2ccc(NC(=O)Nc3cc(C(F)(F)F)ccc3F)cc2)c2c(N)ncnc21 [AD80, reference compound] | 9.05 | 89.7 | 11.8
2 | CC(C)n1nc(-c2ccc(CC(=O)Nc3cc(C(C)(C)C(F)(F)F)on3)cc2)c2c(N)ncnc21 [Compound T-1, 2-(4-(4-amino-1-isopropyl-1H-pyrazolo[3,4-d]pyrimidin-3-yl)phenyl)-N-(5-(1,1,1-trifluoro-2-methylprop-2-yl)isoxazol-3-yl)acetamide] | 3.71 | 436.8 | 7.7
3 | CC(C)n1nc(-c2ccc(NC(=O)Nc3cc(C(C)(C)C(F)(F)F)on3)cc2)c2c(N)ncnc21 [Compound T-2, 1-(4-(4-amino-1-isopropyl-1H-pyrazolo[3,4-d]pyrimidin-3-yl)phenyl)-3-(5-(1,1,1-trifluoro-2-methylprop-2-yl)isoxazol-3-yl)urea] | 5.39 | 62.68 | 2.93
4 | CC(C)n1cc(-c2ccc(CC(=O)Nc3cc(C(C)(C)C(F)(F)F)on3)cc2)c2c(N)ncnc21 [Compound T-3, 2-(4-(4-amino-7-isopropyl-7H-pyrrolo[2,3-d]pyrimidin-5-yl)phenyl)-N-(5-(1,1,1-trifluoro-2-methylprop-2-yl)isoxazol-3-yl)acetamide] | 3.63 | 199.6 | 0.97
5 | CC(C)c1nc(-c2ccc(CC(=O)Nc3cc(C(C)(C)C(F)(F)F)on3)cc2)c2c(N)nccn12 [Compound T-4, 2-(4-(8-amino-3-isopropylimidazo[1,5-a]pyrazin-1-yl)phenyl)-N-(5-(1,1,1-trifluoro-2-methylprop-2-yl)isoxazol-3-yl)acetamide] | 31.6 | 22.2 | 16.6
6 | CC(C)c1cc(-c2ccc(CC(=O)Nc3cc(C(C)(C)C(F)(F)F)on3)cc2)c2c(N)ncnn12 [Compound T-5, 2-(4-(4-amino-7-isopropylpyrrolo[2,1-f][1,2,4]triazin-5-yl)phenyl)-N-(5-(1,1,1-trifluoro-2-methylprop-2-yl)isoxazol-3-yl)acetamide] | 19.7 | 242.8 | 11.4
7 | CC(C)n1nc(-c2ccc(CC(=O)Nc3cc(C(C)(C)C(F)(F)F)on3)c(F)c2)c2c(N)ncnc21 [Compound T-6, 2-(4-(4-amino-1-isopropyl-1H-pyrazolo[3,4-d]pyrimidin-3-yl)-2-fluorophenyl)-N-(5-(1,1,1-trifluoro-2-methylprop-2-yl)isoxazol-3-yl)acetamide] | 5.8 | 361.3 | 6.26
8 | CC(C)n1nc(-c2ccc(CC(=O)Nc3cc(C(C)(C)C(F)(F)F)on3)cn2)c2c(N)ncnc21 [Compound T-7, 2-(6-(4-amino-1-isopropyl-1H-pyrazolo[3,4-d]pyrimidin-3-yl)pyridin-3-yl)-N-(5-(1,1,1-trifluoro-2-methylprop-2-yl)isoxazol-3-yl)acetamide] | 55.7 | 5.9 | 3.22
9 | CC(C)n1nc(-c2ccc(CC(=O)Nc3cc(C(C)(C)C(F)(F)F)no3)cc2)c2c(N)ncnc21 [Compound T-8, 2-(4-(4-amino-1-isopropyl-1H-pyrazolo[3,4-d]pyrimidin-3-yl)phenyl)-N-(3-(1,1,1-trifluoro-2-methylprop-2-yl)isoxazol-5-yl)acetamide] | 1.53 | 2403.3 | 6.28
10 | CC(C)n1nc(-c2ccc(CC(=O)Nc3cc(C(C)(C)C(F)(F)F)no3)cn2)c2c(N)ncnc21 [Compound T-9, 2-(6-(4-amino-1-isopropyl-1H-pyrazolo[3,4-d]pyrimidin-3-yl)pyridin-3-yl)-N-(3-(1,1,1-trifluoro-2-methylprop-2-yl)isoxazol-5-yl)acetamide] | 49.3 | 83.5 | 28.1
11 | CC(C)c1nc(-c2ccc(CC(=O)Nc3cc(C(C)(C)C(F)(F)F)on3)cc2)c2c(N)ncnn12 [Compound T-10, 2-(4-(4-amino-7-isopropylimidazo[5,1-f][1,2,4]triazin-5-yl)phenyl)-N-(5-(1,1,1-trifluoro-2-methylprop-2-yl)isoxazol-3-yl)acetamide] | 18.4 | 121.8 | 39.1
12 | [2H]C([2H])([2H])C(n1nc(-c2ccc(CC(=O)Nc3cc(C(C)(C)C(F)(F)F)no3)cc2)c2c(N)ncnc21)C([2H])([2H])[2H] [Compound T-11, 2-(4-(4-amino-1-(propan-2-yl-1,1,1,3,3,3-d6)-1H-pyrazolo[3,4-d]pyrimidin-3-yl)phenyl)-N-(3-(1,1,1-trifluoro-2-methylpropan-2-yl)isoxazol-5-yl)acetamide] | 6.1 | 902.8 | 13.6
13 | [2H]C([2H])([2H])C(n1cc(-c2ccc(CC(=O)Nc3cc(C(C)(C)C(F)(F)F)on3)cc2)c2c(N)ncnc21)C([2H])([2H])[2H] [Compound T-12, 2-(4-(4-amino-7-(propen-2-yl-1,1,1,3,3,d6)-7H-pyrrolo[2,3-d]pyrimidin-5-yl)phenyl)-N-(5-(1,1,1-trifluo-2-methylpropan-2-yl)isoxazol-3-yl)acetamide] | 8.11 | 132.2 | 3.7
